Experimental data published in US20250230154A1, “COMPOUND HAVING SHP2 PROTEIN DEGRADING ACTIVITY, AND MEDICAL USES THEREOF” (UBIX THERAPEUTICS, INC., priority 2021, published 2025).

Target: T1, SHP2 protein (Homo sapiens, UniProt Q06124)
T1 sequence (Q06124 1-593): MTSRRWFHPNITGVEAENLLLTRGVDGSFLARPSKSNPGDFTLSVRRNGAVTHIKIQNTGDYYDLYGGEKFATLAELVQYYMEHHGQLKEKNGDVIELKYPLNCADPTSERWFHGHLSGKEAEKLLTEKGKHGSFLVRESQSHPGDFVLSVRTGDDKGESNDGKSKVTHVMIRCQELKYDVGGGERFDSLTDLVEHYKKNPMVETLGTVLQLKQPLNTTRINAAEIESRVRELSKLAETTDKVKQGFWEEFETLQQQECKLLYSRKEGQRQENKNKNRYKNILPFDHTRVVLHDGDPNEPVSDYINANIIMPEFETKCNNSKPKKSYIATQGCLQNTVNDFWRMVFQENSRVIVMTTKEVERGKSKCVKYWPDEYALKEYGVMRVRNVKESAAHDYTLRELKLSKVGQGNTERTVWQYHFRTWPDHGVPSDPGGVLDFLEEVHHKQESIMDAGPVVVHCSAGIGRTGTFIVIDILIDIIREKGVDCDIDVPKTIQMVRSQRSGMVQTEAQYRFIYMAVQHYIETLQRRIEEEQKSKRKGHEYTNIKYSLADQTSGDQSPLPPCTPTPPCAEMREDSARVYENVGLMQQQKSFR
Assay: Measurement of SHP2 protein degradation in MV-4-11 cells (western blotting)
Format: cell-based
Design: endogenous in cells; host or cells: MV-4-11
Conditions: MV-4-11 cells, 24 hours
Summary of the method: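 SHP2 protein levels were assessed by western blotting in MV-4-11 cells after a 24 hour compound treatment. Lysates were sonicated, centrifuged, normalized by BCA assay at 562 nm, run on Bis-tris 4-12% gels, transferred to NC membrane, probed with anti-SHPTP2 (70 kDa) and anti-GAPDH (37 kDa) antibodies, and detected on LI-COR Odyssey.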

| Structure (SMILES) | SHP2 degradation (%) 10 nM | SHP2 degradation (%) 100 nM | SHP2 degradation (%) 1000 nM |
| --- | --- | --- | --- |
| Cc1ncsc1-c1ccc(CNC(=O)[C@@H]2C[C@@H](O)CN2C(=O)[C@@H](NC(=O)C2(F)CC2)C(C)(C)C)c(OCCN2CCN(C(=O)CC(=O)Nc3cccc(Sc4cnc(N5CCC(C)(CN)CC5)cn4)c3Cl)C[C@H]2C(=O)O)c1 [Example 69, (S)-4-(3-((3-((5-(4-(aminomethyl)-4-methylpiperidin-1-yl)pyrazin-2-yl)thio)-2-chlorophenyl)amino)-3-oxopropanoyl)-1-(2-(2-(((2S,4R)-1-((S)-2-(1-fluorocyclopropane-1-carboxamido)-3,3-dimethylbutanoyl)-4-hydroxypyrrolidine-2-carboxamido)methyl)-5-(4-methylthiazol-5-yl)phenoxy)ethyl)piperazine-2-carboxylic Acid] | 20% | 81.9% |  |
| Cc1ncsc1-c1ccc(CNC(=O)[C@@H]2C[C@@H](O)CN2C(=O)[C@@H](NC(=O)C2(F)CC2)C(C)(C)C)c(OCCN2CCN(C(=O)CC(=O)Nc3cccc(Sc4cnc(N5CCC(C)(CN)CC5)cn4)c3Cl)C[C@@H]2C(=O)O)c1 [Example 70, (R)-4-(3-((3-((5-(4-(aminomethyl)-4-methylpiperidin-1-yl)pyrazin-2-yl)thio)-2-chlorophenyl)amino)-3-oxopropanoyl)-1-(2-(2-(((2S,4R)-1-((S)-2-(1-fluorocyclopropane-1-carboxamido)-3,3-dimethylbutanoyl)-4-hydroxypyrrolidine-2-carboxamido)methyl)-5-(4-methylthiazol-5-yl)phenoxy)ethyl)piperazine-2-carboxylic Acid] | 14.4% | 59.2% |  |
| Cc1ncsc1-c1ccc(CNC(=O)[C@@H]2C[C@@H](O)CN2C(=O)[C@@H](NC(=O)C2(F)CC2)C(C)(C)C)c(OCCCC2CCN(CC(=O)Nc3cccc(Sc4cnc(N5CCC(C)(CN)CC5)cn4)c3Cl)CC2)c1 [Example 71, (2S,4R)—N-(2-(3-(1-(2-((3-((5-(4-(aminomethyl)-4-methylpiperidin-1-yl)pyrazin-2-yl)thio)-2-chlorophenyl)amino)-2-oxoethyl)piperidin-4-yl)propoxy)-4-(4-methylthiazol-5-yl)benzyl)-1-((S)-2-(1-fluorocyclopropane-1-carboxamido)-3,3-dimethylbutanoyl)-4-hydroxypyrrolidine-2-carboxamide] | −1.0% | 29.0% | 87.5% |
| Cc1ncsc1-c1ccc(CNC(=O)[C@@H]2C[C@@H](O)CN2C(=O)[C@@H](NC(=O)C2(F)CC2)C(C)(C)C)c(OCCN2CCN(CC(=O)Nc3cccc(Sc4cnc(N5CCC(C)(CN)CC5)cn4)c3Cl)CC2)c1 [Example 72, (2S,4R)—N-(2-(2-(4-(2-((3-((5-(4-(aminomethyl)-4-methylpiperidin-1-yl)pyrazin-2-yl)thio)-2-chlorophenyl)amino)-2-oxoethyl)piperazin-1-yl)ethoxy)-4-(4-methylthiazol-5-yl)benzyl)-1-((S)-2-(1-fluorocyclopropane-1-carboxamido)-3,3-dimethylbutanoyl)-4-hydroxypyrrolidine-2-carboxamide] | 5.1% | 85.6% |  |
| Cc1ncsc1-c1ccc(CNC(=O)[C@@H]2C[C@@H](O)CN2C(=O)[C@@H](NC(=O)C2(F)CC2)C(C)(C)C)c(OCCN2CCN(CC(=O)Nc3cccc(Sc4cnc(N5CCC(C)(CN)CC5)cn4)c3Cl)C(=O)C2)c1 [Example 76, (2S,4R)—N-(2-(2-(4-(2-((3-((5-(4-(aminomethyl)-4-methylpiperidin-1-yl)pyrazin-2-yl)thio)-2-chlorophenyl)amino)-2-oxoethyl)-3-oxopiperazin-1-yl)ethoxy)-4-(4-methylthiazol-5-yl)benzyl)-1-((S)-2-(1-fluorocyclopropane-1-carboxamido)-3,3-dimethylbutanoyl)-4-hydroxypyrrolidine-2-carboxamide] | 94.2% | 99.5% |  |
| Cc1ncsc1-c1ccc(CNC(=O)[C@@H]2C[C@@H](O)CN2C(=O)[C@@H](NC(=O)C2(F)CC2)C(C)(C)C)c(OCCCCN2CCN(CC(=O)Nc3cccc(Sc4cnc(N5CCC(C)(CN)CC5)cn4)c3Cl)C(=O)C2)c1 [Example 78, (2S,4R)—N-(2-(4-(4-(2-((3-((5-(4-(aminomethyl)-4-methylpiperidin-1-yl)pyrazin-2-yl)thio)-2-chlorophenyl)amino)-2-oxoethyl)-3-oxopiperazin-1-yl)butoxy)-4-(4-methylthiazol-5-yl)benzyl)-1-((S)-2-(1-fluorocyclopropane-1-carboxamido)-3,3-dimethylbutanoyl)-4-hydroxypyrrolidine-2-carboxamide] | 86.6% | 99.5% |  |

Results, then the compound that gave them:

| SHP2 degradation (%) 10 nM | SHP2 degradation (%) 100 nM | SHP2 degradation (%) 1000 nM | Structure (SMILES) |
| --- | --- | --- | --- |
| 8.2% | 81.2% |  | Cc1ncsc1-c1ccc(CNC(=O)[C@@H]2C[C@@H](O)CN2C(=O)[C@@H](NC(=O)C2(F)CC2)C(C)(C)C)c(OCCCN2CCN(CC(=O)Nc3cccc(Sc4cnc(N5CCC(C)(CN)CC5)cn4)c3Cl)CC2)c1 [Example 73, (2S,4R)—N-(2-(3-(4-(2-((3-((5-(4-(aminomethyl)-4-methylpiperidin-1-yl)pyrazin-2-yl)thio)-2-chlorophenyl)amino)-2-oxoethyl)piperazin-1-yl)propoxy)-4-(4-methylthiazol-5-yl)benzyl)-1-((S)-2-(1-fluorocyclopropane-1-carboxamido)-3,3-dimethylbutanoyl)-4-hydroxypyrrolidine-2-carboxamide] |
| 29.0% | 80.5% | 94.5% | Cc1ncsc1-c1ccc(CNC(=O)[C@@H]2C[C@@H](O)CN2C(=O)[C@@H](NC(=O)C2(F)CC2)C(C)(C)C)c(OCCC2CCN(CCC(=O)Nc3cccc(Sc4cnc(N5CCC(C)(CN)CC5)cn4)c3Cl)CC2)c1 [Example 74, (2S,4R)—N-(2-(2-(1-(3-((3-((5-(4-(aminomethyl)-4-methylpiperidin-1-yl)pyrazin-2-yl)thio)-2-chlorophenyl)amino)-3-oxopropyl)piperidin-4-yl)ethoxy)-4-(4-methylthiazol-5-yl)benzyl)-1-((S)-2-(1-fluorocyclopropane-1-carboxamido)-3,3-dimethylbutanoyl)-4-hydroxypyrrolidine-2-carboxamide] |
| 19.5% | 75.5% | 93.5% | Cc1ncsc1-c1ccc(CNC(=O)[C@@H]2C[C@@H](O)CN2C(=O)[C@@H](NC(=O)C2(F)CC2)C(C)(C)C)c(OCCCC2CCN(CCC(=O)Nc3cccc(Sc4cnc(N5CCC(C)(CN)CC5)cn4)c3Cl)CC2)c1 [Example 75, (2S,4R)—N-(2-(3-(1-(3-((3-((5-(4-(aminomethyl)-4-methylpiperidin-1-yl)pyrazin-2-yl)thio)-2-chlorophenyl)amino)-3-oxopropyl)piperidin-4-yl)propoxy)-4-(4-methylthiazol-5-yl)benzyl)-1-((S)-2-(1-fluorocyclopropane-1-carboxamido)-3,3-dimethylbutanoyl)-4-hydroxypyrrolidine-2-carboxamide] |
| 92.4% | 99.5% |  | Cc1ncsc1-c1ccc(CNC(=O)[C@@H]2C[C@@H](O)CN2C(=O)[C@@H](NC(=O)C2(F)CC2)C(C)(C)C)c(OCCCN2CCN(CC(=O)Nc3cccc(Sc4cnc(N5CCC(C)(CN)CC5)cn4)c3Cl)C(=O)C2)c1 [Example 77, (2S,4R)—N-(2-(3-(4-(2-((3-((5-(4-(aminomethyl)-4-methylpiperidin-1-yl)pyrazin-2-yl)thio)-2-chlorophenyl)amino)-2-oxoethyl)-3-oxopiperazin-1-yl)propoxy)-4-(4-methylthiazol-5-yl)benzyl)-1-((S)-2-(1-fluorocyclopropane-1-carboxamido)-3,3-dimethylbutanoyl)-4-hydroxypyrrolidine-2-carboxamide] |
| 78.4% | 98.6% |  | Cc1ncsc1-c1ccc(CNC(=O)[C@@H]2C[C@@H](O)CN2C(=O)[C@@H](NC(=O)C2CC2)C(C)(C)C)c(OCCN2CCN(CC(=O)Nc3cccc(Sc4cnc(N5CCC(C)(CN)CC5)cn4)c3Cl)C(=O)C2)c1 [Example 79, (2S,4R)—N-(2-(2-(4-(2-((3-((5-(4-(aminomethyl)-4-methylpiperidin-1-yl)pyrazin-2-yl)thio)-2-chlorophenyl)amino)-2-oxoethyl)-3-oxopiperazin-1-yl)ethoxy)-4-(4-methylthiazol-5-yl)benzyl)-1-((S)-2-(cyclopropanecarboxamido)-3,3-dimethylbutanoyl)-4-hydroxypyrrolidine-2-carboxamide] |
